Test systems include OVCAR-5 ovarian; NCI-H460 lung; T-47D breast; HS 578T breast; IGROV1 ovarian; SK-MEL-5 melanoma.
Holding throughout (assay): growth of human tumour cells (NCI), 48 h

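Tested at 5 concentrations; 48 h exposure; 96-well plates; endpoints linearly interpolated, else capped at highest concentration. The concentration for 50% growth inhibition is given as GI50. TGI: concentration producing complete growth inhibition.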

`Cc1ccc(-c2nc(N3CCCNCC3)c3oc(-c4ccc(C)cc4)nc3n2)cc1`: the GI50 with OVCAR-5 ovarian was 1.75 µM; with NCI-H460 lung, 1890 nM; in the test on T-47D breast it was 1940 nM; in the test on HS 578T breast it was 12.6 µM; in the test with IGROV1 ovarian, 1620 nM. Further, the TGI amounted to 3.17 µM in the test on OVCAR-5 ovarian; 3.43 µM in the test with NCI-H460 lung; 4.17 µM with T-47D breast; 31.9 µM in the test on HS 578T breast; 3.19 µM in the test with IGROV1 ovarian.
With `Cn1cnc([N+](=O)[O-])c1Sc1ncn[nH]1`, the GI50 with OVCAR-5 ovarian is above 100 µM; in the test on NCI-H460 lung, above 100000 nM; in the test with T-47D breast, 17000 nM; with HS 578T breast, 52.8 µM; in the test with SK-MEL-5 melanoma it was above 100000 nM; with IGROV1 ovarian, 40700 nM. Also, the TGI with OVCAR-5 ovarian, in the test with NCI-H460 lung, with T-47D breast, in the test on HS 578T breast, with SK-MEL-5 melanoma and in the test on IGROV1 ovarian was above 100 µM in each case.
Take `O=S(=O)(NCCNc1nccc(-c2c(-c3ccc(F)cc3)nc3sccn23)n1)c1ccccc1`: the GI50 with OVCAR-5 ovarian is 81.1 µM; with NCI-H460 lung, 2720 nM; in the test on T-47D breast, 1790 nM; in the test with HS 578T breast, 13.6 µM; in the test on SK-MEL-5 melanoma, 2450 nM; in the test with IGROV1 ovarian, 2990 nM. Further, the TGI is above 100 µM in the test with OVCAR-5 ovarian; above 100 µM with NCI-H460 lung; 27.3 µM in the test on T-47D breast; above 100 µM with HS 578T breast; 13.7 µM in the test with SK-MEL-5 melanoma; 32.7 µM in the test on IGROV1 ovarian.
On to `CCN(CC)CCOc1ccc(C(=O)/C=C\c2ccc(Cl)cc2Cl)cc1`, for which the GI50 in the test on OVCAR-5 ovarian is 10.3 µM; in the test on NCI-H460 lung, 11100 nM; in the test on T-47D breast it was 11900 nM; with HS 578T breast, 9.47 µM; with SK-MEL-5 melanoma, 3140 nM; in the test with IGROV1 ovarian it was 4630 nM. In addition, the TGI came to 27.2 µM in the test on OVCAR-5 ovarian; 26.1 µM in the test on NCI-H460 lung; 33.6 µM with T-47D breast; 32 µM in the test on HS 578T breast; 12.3 µM in the test with SK-MEL-5 melanoma; 22.4 µM in the test on IGROV1 ovarian.
With `CNC(=O)OCC1C2=C(C(=O)C(C)=C(N)C2=O)N2CC3C(N3C)C12OC` (stereo unspecified), the TGI with OVCAR-5 ovarian is above 100 µM; in the test with NCI-H460 lung, 10 µM; in the test with T-47D breast, above 100 µM; in the test with SK-MEL-5 melanoma, 23.8 µM; with IGROV1 ovarian, 26.1 µM.
On to `O=[N+]([O-])c1ccc(S(=O)(=O)Cc2ccccc2)c2nonc12`, for which the TGI with OVCAR-5 ovarian is above 100 µM; in the test on NCI-H460 lung, 37.8 µM; in the test with T-47D breast, 39.8 µM; with HS 578T breast, 58.5 µM; in the test with SK-MEL-5 melanoma, 36.5 µM; with IGROV1 ovarian, 37.3 µM.
On to `COc1ccc(Nc2c3ccccc3nc3[nH]c4ccccc4c23)cc1`, for which the GI50 with OVCAR-5 ovarian is 26.7 µM; in the test with NCI-H460 lung, 2280 nM; in the test on HS 578T breast it was 21 µM; in the test with SK-MEL-5 melanoma, 5520 nM; with IGROV1 ovarian it was 16900 nM. The TGI in the test with OVCAR-5 ovarian, in the test on NCI-H460 lung, with HS 578T breast, in the test with SK-MEL-5 melanoma and with IGROV1 ovarian was above 50 µM each time.
Turning to `CCCNc1nc2ccccc2c2c1S(=O)(=O)c1ccc(Cl)cc1C2=O`, the GI50 with NCI-H460 lung is 1300 nM; with T-47D breast, 1350 nM; in the test on HS 578T breast it was 1.21 µM; in the test with SK-MEL-5 melanoma, 1510 nM; in the test on IGROV1 ovarian, 1460 nM. Moreover, the TGI is 4.47 µM with NCI-H460 lung; above 50 µM with T-47D breast; above 50 µM with HS 578T breast; above 50 µM in the test on SK-MEL-5 melanoma; above 50 µM in the test on IGROV1 ovarian.
Regarding `C=C1[C@@H]([C@@]2(C)C=CC(=O)C(C)(C)[C@@H]2CC(=O)OC)CC[C@@]2(C)C(c3ccoc3)OC(=O)[C@H]3O[C@]132` (stereo partly specified), the TGI in the test on OVCAR-5 ovarian, with NCI-H460 lung, with T-47D breast, in the test on HS 578T breast, in the test with SK-MEL-5 melanoma and with IGROV1 ovarian was above 100 µM throughout.
Take `COc1cc2c3c(n(CCCN=[N+]=[N-])c(=O)c2cc1OC)-c1ccc(N(C)C)cc1C3=O`: the GI50 is above 100 µM in the test with OVCAR-5 ovarian; above 100000 nM with NCI-H460 lung; above 100000 nM in the test on T-47D breast; above 100 µM in the test on HS 578T breast; 87100 nM with SK-MEL-5 melanoma; above 100000 nM with IGROV1 ovarian. For the same compound, the TGI with OVCAR-5 ovarian, with NCI-H460 lung, in the test on T-47D breast, in the test on HS 578T breast, with SK-MEL-5 melanoma and in the test on IGROV1 ovarian was above 100 µM each time.
As to `CSc1cccc(NC(=O)OC2CCCCCCCCCCC2)c1`, the TGI is above 100 µM in the test with OVCAR-5 ovarian; 35.2 µM in the test on NCI-H460 lung; above 100 µM in the test on T-47D breast; above 100 µM in the test on HS 578T breast; 29.1 µM with SK-MEL-5 melanoma; above 100 µM with IGROV1 ovarian.
Take `O=C(Nc1ccc(Cl)c(Cl)c1)OCCN1c2ccccc2Sc2ccccc21`: the TGI in the test on OVCAR-5 ovarian, in the test with T-47D breast, in the test with HS 578T breast, in the test on SK-MEL-5 melanoma and in the test on IGROV1 ovarian was above 10 µM each time.
In the case of `COc1cc(/C=C/C(=O)c2cccnc2Nc2ccc(F)cc2)cc(OC)c1OC`, the GI50 in the test on OVCAR-5 ovarian is 4.1 µM; in the test with NCI-H460 lung, 2830 nM; with T-47D breast, 3960 nM; in the test with HS 578T breast it was 3.68 µM; in the test with SK-MEL-5 melanoma, 2510 nM; in the test with IGROV1 ovarian, 7420 nM. Also, the TGI was determined as 17.8 µM in the test on OVCAR-5 ovarian; 10.1 µM with NCI-H460 lung; 25 µM in the test with T-47D breast; 95.2 µM with HS 578T breast; 8.24 µM in the test with SK-MEL-5 melanoma; 50.3 µM in the test with IGROV1 ovarian.
On to `O=C1NCCS(=O)(=O)/C1=C\C=C\c1cccc(C(F)(F)F)c1`, for which the GI50 is 2730 nM with NCI-H460 lung; 3510 nM in the test on T-47D breast; 6.81 µM in the test with HS 578T breast; 1710 nM in the test on SK-MEL-5 melanoma; 2610 nM in the test on IGROV1 ovarian. Besides, the TGI in the test with NCI-H460 lung came to 7.68 µM; with T-47D breast, 17.3 µM; with HS 578T breast it was 30.7 µM; in the test with SK-MEL-5 melanoma, 3.36 µM; in the test with IGROV1 ovarian, 11.8 µM.
As for `COc1ccc(Nc2cc(C)nc(N3CCN(c4ccnc5cc(Cl)ccc45)CC3)n2)cc1`, the GI50 with NCI-H460 lung was 1920 nM; in the test on T-47D breast, 1990 nM; in the test on HS 578T breast, 4.04 µM; with SK-MEL-5 melanoma, 1670 nM; with IGROV1 ovarian, 4390 nM. Also, the TGI is above 100 µM with NCI-H460 lung; 6.59 µM with T-47D breast; above 100 µM with HS 578T breast; 3.35 µM with SK-MEL-5 melanoma; above 100 µM in the test on IGROV1 ovarian.
For the compound `COC(=O)[C@@H](C)C[C@H](Cc1ccccc1)NC(=O)c1csc([C@@H](C[C@H](C(C)C)N(C)C(=O)[C@H](C)NC(=O)[C@H]2CCCCN2C)OC(C)=O)n1`, the GI50 with OVCAR-5 ovarian is 9.48 µM; in the test with NCI-H460 lung, 1180 nM; in the test with HS 578T breast, 1.39 µM; with SK-MEL-5 melanoma, 860 nM; with IGROV1 ovarian, 1140 nM. The TGI in the test with OVCAR-5 ovarian, in the test with NCI-H460 lung, in the test with HS 578T breast, in the test on SK-MEL-5 melanoma and in the test on IGROV1 ovarian was above 25 µM in each case.
In the case of `CN(C)CCN1C(=O)c2cccc3cccc(c23)C1=O`, the GI50 was 18.1 µM in the test with OVCAR-5 ovarian; 8260 nM with NCI-H460 lung; above 25000 nM in the test with T-47D breast; above 25 µM in the test with HS 578T breast; 18400 nM in the test with SK-MEL-5 melanoma. For the same compound, the TGI in the test on OVCAR-5 ovarian, in the test with NCI-H460 lung, with T-47D breast, with HS 578T breast and in the test with SK-MEL-5 melanoma was above 25 µM in each case.
On to `C=CS(=O)(=O)CCN1CC1`, for which the TGI in the test on OVCAR-5 ovarian, in the test with T-47D breast, in the test on HS 578T breast, in the test on SK-MEL-5 melanoma and in the test with IGROV1 ovarian was above 10 µM each time.
For `Cc1cccc(Nc2cnc(N)nc2N)c1`, the TGI in the test with T-47D breast, in the test with SK-MEL-5 melanoma and in the test with IGROV1 ovarian was above 100 µM throughout.
Turning to `O=C1CC(c2ccc(Cl)cc2)Oc2ccccc21` (stereo unspecified), the TGI is 45.3 µM in the test on NCI-H460 lung; above 100 µM with T-47D breast; 54.8 µM in the test with HS 578T breast; 27.3 µM in the test with SK-MEL-5 melanoma; 40.8 µM with IGROV1 ovarian.
In the case of `c1ccc(CNc2nc(Nc3ccccc3)nc3ccccc23)cc1`, the GI50 in the test on OVCAR-5 ovarian was 1.86 µM; with T-47D breast, 1720 nM; in the test on HS 578T breast it was 2.17 µM; with SK-MEL-5 melanoma, 1410 nM; with IGROV1 ovarian, 2590 nM. In addition, the TGI with OVCAR-5 ovarian was 4.19 µM; in the test with T-47D breast, 4.46 µM; with HS 578T breast, 6.01 µM; in the test with SK-MEL-5 melanoma, 2.76 µM; in the test on IGROV1 ovarian it was 7.44 µM.
With `CCn1c2ccccc2c2cc(C(O)c3cccc4ncccc34)ccc21` (stereo unspecified), the GI50 was 3.25 µM with OVCAR-5 ovarian; 38.8 nM in the test with NCI-H460 lung; 0.0505 µM with HS 578T breast; 46.5 nM in the test on SK-MEL-5 melanoma; 174 nM with IGROV1 ovarian. Also, the TGI with OVCAR-5 ovarian is above 100 µM; with NCI-H460 lung it was 4.61 µM; with HS 578T breast, 23.5 µM; with SK-MEL-5 melanoma it was 1.57 µM; with IGROV1 ovarian, above 100 µM.
